Source: the supplement of paper PMC12463676, “Small-molecule dissolution of stress granules by redox modulation benefits ALS models” (Nature Chemical Biology, 2025)

Key:
lipoamide = compound: NC(=O)CCCCC1CCSS1 [lipoamide]; assay: thermal stability z-score vs DMSO; higher = more thermally stabilized by treatment; details: HeLa, lipoamide concentration 100 µM
Method: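 Cellular thermal proteome profiling in HeLa cells. Cells were treated with 100 µM lipoamide for 1 h, with or without 1 mM arsenate for a further 1 h, then heated to ten temperatures (37-66.3 °C), and soluble protein was quantified by TMT mass spectrometry relative to 0.1% DMSO controls. The thermal stability score (sum of log2 fold changes minus the abundance score) was transformed to a z-score; mean of n = 3 experiments.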

potassium arsenate = compound: O=[As]([O-])(O)O.[K+] [potassium arsenate]; assay: as above; details: HeLa; arsenate concentration 1 mM
Method: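 Cellular thermal proteome profiling in HeLa cells treated with 1 mM arsenate for 1 h (DMSO pretreatment), heated to ten temperatures (37-66.3 °C). Soluble protein was quantified by TMT mass spectrometry relative to DMSO controls; the thermal stability score was transformed to a z-score; mean of n = 3 experiments.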

[1] = arsenate co-treatment: 1 mM arsenate 1 h
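Note: each temperature applied for 3 min, abundance score taken as mean log2 fold change at the two lowest temperatures, z-score obtained by mean subtraction and division by SD.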

UniProt Q8WW59, sequence (Q8WW59 whole entry): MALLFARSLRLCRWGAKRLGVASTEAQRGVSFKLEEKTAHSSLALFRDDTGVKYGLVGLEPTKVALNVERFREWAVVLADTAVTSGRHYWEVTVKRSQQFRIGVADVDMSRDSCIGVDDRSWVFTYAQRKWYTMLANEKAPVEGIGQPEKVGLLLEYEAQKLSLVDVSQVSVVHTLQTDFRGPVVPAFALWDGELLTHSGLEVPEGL
UniProt Q9H2P0, sequence (Q9H2P0 whole entry): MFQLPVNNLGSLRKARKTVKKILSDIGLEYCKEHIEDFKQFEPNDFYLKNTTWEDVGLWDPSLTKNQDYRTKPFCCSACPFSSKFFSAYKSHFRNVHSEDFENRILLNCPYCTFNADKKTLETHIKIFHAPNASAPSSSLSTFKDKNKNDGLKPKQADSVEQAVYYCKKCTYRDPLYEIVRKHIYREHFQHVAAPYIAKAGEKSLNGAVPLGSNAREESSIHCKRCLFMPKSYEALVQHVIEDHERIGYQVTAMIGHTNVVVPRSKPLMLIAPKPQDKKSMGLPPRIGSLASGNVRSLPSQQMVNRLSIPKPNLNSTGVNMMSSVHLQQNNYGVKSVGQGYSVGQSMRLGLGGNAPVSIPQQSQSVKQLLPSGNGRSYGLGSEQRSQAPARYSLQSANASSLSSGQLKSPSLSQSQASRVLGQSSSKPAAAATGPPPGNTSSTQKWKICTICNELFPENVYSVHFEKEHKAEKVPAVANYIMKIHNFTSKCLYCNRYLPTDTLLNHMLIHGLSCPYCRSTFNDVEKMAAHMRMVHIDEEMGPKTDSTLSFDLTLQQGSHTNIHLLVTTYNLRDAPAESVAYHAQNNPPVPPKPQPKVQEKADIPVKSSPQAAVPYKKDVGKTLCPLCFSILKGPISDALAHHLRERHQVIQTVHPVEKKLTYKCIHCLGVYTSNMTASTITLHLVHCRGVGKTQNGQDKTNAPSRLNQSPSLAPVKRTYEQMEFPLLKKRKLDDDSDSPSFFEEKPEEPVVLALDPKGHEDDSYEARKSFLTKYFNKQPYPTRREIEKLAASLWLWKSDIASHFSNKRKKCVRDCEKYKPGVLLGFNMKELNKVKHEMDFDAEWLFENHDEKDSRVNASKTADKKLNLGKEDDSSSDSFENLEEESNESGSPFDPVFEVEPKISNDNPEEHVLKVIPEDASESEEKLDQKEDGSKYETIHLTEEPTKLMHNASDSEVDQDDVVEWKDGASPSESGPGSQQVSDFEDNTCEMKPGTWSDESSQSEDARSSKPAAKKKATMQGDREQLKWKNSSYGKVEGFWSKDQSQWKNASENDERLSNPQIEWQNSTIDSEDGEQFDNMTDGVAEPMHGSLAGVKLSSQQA
UniProt Q9BTL3, sequence (Q9BTL3 whole entry): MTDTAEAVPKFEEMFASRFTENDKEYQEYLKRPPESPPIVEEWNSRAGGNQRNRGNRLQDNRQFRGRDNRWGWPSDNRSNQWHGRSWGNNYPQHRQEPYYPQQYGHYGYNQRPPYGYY
UniProt O95825, sequence (O95825 whole entry): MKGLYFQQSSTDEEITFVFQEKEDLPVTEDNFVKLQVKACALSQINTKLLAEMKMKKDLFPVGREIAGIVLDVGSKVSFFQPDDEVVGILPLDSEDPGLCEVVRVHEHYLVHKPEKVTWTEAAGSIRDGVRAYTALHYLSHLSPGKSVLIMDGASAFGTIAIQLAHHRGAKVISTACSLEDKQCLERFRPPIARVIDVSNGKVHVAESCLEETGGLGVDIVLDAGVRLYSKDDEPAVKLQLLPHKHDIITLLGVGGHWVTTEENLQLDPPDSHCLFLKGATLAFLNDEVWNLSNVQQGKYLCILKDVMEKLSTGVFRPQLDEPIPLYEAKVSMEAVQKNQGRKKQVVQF
UniProt P22466, sequence (P22466 whole entry): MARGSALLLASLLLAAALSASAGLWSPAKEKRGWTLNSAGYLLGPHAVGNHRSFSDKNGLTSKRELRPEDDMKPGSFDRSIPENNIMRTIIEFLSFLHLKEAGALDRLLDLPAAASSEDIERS
UniProt P19623, sequence (P19623 whole entry): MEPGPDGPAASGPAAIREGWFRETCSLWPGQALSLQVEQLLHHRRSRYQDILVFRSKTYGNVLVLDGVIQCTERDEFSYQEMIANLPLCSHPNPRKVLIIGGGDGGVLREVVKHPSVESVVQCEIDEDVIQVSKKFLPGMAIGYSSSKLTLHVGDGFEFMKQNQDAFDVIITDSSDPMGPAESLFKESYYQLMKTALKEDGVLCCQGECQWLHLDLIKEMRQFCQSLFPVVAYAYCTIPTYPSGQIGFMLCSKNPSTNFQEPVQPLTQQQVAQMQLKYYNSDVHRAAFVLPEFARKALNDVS
UniProt P05386, sequence (P05386 whole entry): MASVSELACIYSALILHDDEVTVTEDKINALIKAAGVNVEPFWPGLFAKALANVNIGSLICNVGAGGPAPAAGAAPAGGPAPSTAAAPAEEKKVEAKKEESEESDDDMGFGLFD
UniProt Q9H098, sequence (Q9H098 whole entry): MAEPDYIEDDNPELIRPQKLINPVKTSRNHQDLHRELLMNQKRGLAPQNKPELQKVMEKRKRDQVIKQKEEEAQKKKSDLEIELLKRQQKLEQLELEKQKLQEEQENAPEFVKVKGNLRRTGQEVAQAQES
UniProt P61088, sequence (P61088 whole entry): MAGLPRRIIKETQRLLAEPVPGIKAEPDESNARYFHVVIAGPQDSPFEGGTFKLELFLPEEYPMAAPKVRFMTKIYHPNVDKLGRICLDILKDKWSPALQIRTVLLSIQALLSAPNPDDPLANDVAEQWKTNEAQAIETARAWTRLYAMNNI
UniProt Q96BY6, sequence (Q96BY6 whole entry): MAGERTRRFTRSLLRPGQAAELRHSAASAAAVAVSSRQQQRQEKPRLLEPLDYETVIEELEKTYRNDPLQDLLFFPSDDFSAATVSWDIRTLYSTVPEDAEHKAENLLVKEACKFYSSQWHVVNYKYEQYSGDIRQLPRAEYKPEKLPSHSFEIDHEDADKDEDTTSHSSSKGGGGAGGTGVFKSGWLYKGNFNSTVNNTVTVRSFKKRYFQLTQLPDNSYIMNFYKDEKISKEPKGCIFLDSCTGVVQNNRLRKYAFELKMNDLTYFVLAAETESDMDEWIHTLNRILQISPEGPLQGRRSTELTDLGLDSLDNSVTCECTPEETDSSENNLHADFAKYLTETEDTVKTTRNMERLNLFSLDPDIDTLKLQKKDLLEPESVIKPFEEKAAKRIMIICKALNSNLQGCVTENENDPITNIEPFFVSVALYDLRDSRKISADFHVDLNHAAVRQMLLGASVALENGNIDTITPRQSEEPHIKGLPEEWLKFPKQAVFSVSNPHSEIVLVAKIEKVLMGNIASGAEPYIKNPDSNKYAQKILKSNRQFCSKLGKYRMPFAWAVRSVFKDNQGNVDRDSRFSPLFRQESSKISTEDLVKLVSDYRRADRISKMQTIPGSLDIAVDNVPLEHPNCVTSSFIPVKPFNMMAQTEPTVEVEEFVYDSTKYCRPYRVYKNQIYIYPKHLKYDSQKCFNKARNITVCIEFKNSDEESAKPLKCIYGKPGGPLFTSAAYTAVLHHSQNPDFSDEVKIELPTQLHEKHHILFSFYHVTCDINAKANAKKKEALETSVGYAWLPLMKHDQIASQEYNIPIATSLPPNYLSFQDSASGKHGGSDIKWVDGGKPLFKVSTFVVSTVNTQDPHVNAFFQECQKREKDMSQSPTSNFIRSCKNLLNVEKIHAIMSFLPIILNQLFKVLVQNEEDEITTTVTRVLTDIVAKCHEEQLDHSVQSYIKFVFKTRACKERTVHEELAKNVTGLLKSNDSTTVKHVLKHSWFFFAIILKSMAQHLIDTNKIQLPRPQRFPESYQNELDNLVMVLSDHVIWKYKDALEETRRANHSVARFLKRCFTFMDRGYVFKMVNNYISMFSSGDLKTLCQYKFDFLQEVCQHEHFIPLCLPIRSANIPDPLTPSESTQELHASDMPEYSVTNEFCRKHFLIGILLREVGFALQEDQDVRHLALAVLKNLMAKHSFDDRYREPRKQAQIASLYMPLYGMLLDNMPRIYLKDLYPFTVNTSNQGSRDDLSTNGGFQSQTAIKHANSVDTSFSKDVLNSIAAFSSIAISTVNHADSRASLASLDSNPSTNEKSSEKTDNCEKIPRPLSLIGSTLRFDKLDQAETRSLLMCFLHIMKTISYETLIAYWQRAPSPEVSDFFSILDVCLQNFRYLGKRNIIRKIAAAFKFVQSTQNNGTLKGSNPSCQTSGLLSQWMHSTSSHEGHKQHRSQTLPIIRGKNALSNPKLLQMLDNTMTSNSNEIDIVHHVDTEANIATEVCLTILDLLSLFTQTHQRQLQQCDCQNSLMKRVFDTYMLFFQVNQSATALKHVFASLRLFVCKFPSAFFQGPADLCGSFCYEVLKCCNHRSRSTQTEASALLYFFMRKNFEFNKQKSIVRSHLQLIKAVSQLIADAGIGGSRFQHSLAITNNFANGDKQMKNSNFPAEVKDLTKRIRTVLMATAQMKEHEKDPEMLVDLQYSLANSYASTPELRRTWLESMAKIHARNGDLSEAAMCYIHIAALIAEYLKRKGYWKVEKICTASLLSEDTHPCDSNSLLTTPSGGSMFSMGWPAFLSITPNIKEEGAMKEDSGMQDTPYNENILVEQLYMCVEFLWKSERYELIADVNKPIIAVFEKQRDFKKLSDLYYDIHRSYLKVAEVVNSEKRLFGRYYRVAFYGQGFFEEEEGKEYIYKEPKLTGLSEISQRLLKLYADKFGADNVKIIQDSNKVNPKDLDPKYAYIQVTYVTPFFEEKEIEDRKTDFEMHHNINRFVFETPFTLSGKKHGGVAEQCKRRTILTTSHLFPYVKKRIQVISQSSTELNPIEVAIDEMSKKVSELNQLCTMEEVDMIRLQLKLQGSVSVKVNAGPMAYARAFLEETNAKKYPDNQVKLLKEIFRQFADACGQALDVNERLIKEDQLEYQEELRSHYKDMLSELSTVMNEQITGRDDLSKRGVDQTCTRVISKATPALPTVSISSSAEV

Row | Target | thermal stability z-score (lipoamide; [1]) | thermal stability z-score (lipoamide; arsenate co-treatment: none) | thermal stability z-score (potassium arsenate)
1 | SLC25A5 (UniProt P05141) | 0.657 | 0.589 | 0.562
2 | FAM103A1 (UniProt Q9BTL3) | 1.17 | 0.62 | -0.0441
3 | SRM (UniProt P19623) | -0.392 | -0.0266 | -0.141
4 | MCTP2 (UniProt Q6DN12) | -0.192 | -0.145 | -0.604
5 | RPL17 (UniProt P18621) | 0.743 | 0.704 | -0.755
6 | FAM107B (UniProt Q9H098) | -0.0721 | 0.629 | 0.327
7 | UBE2N (UniProt P61088) | -0.524 | -0.293 | -0.899
8 | GTPBP10 (UniProt A4D1E9) | -0.946 | 0.2 | 0.522
9 | ADNP (UniProt Q9H2P0) | -0.0133 | -0.0224 | -0.271
10 | GAL (UniProt P22466) | 0.135 | -0.122 | -0.0332
11 | DOCK10 (UniProt Q96BY6) | -0.106 | -0.259 | 0.0405
12 | MST1R (UniProt Q04912) | -0.0878 | 0.0193 | -0.0232
13 | CDC20 (UniProt Q12834) | -0.124 | -0.245 | -1.51
14 | C16ORF13 (UniProt Q96S19) | 0.306 | 0.154 | 0.536
15 | RPLP1 (UniProt P05386) | 1.44 | 0.753 | 0.00244
16 | SPRYD4 (UniProt Q8WW59) | 2.66 | 2.54 | 1.75
17 | UBIAD1 (UniProt Q9Y5Z9) | -0.487 | -0.317 | -0.362
18 | CRYZL1 (UniProt O95825) | -0.0756 | -0.692 | -0.358
